US12685312B2, “Sulfonamide apyrase inhibitors” (Texas Crop Science, Inc., priority 2022, dated 2026)

Test system: apyrase
Test: Screen for apyrase inhibitors (Method 1, in vitro phosphate-release absorbance assay)
Type: biochemical
Conditions: inhibitor conc at 1 mM stock, 1 hr room temperature, absorbance 630 nm; rounded average of two assay results
Outline: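 Phosphate-release colorimetric assay (Windsor method) in 60 mM Hepes, 3 mM MgCl2, 3 mM CaCl2, 3 mM ATP, pH 6.5, with compound or DMSO control added. Released phosphate developed with ammonium molybdate and ascorbic acid/TCA, then stopped with citrate/acetic acid.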

% Inhibition of Apyrase [%]	SMILES
13	O=C(Nc1ccc2c(c1)OCCCO2)c1cccc(S(=O)(=O)N2CCc3ccccc32)c1 [I-609, N-(3,4-dihydro-2H-benzo[b][1,4]dioxepin-7-yl)-3-(indolin-1-ylsulfonyl)benzamide]
4	CC(=O)c1ccccc1NC(=O)c1cccc(S(=O)(=O)N2c3ccccc3CC2C)c1 (stereo not shown) [I-610, N-(2-acetylphenyl)-3-((2-methylindolin-1-yl)sulfonyl)benzamide]
4	Cc1ccc(S(=O)(=O)Nc2ccccc2F)cc1C(=O)Nc1ccc(F)cc1F [I-611, N-(2,4-difluorophenyl)-5-(N-(2-fluorophenyl)sulfamoyl)-2-methylbenzamide]
4	COc1ccc(NC(=O)c2cccc(S(=O)(=O)Nc3cccc(Cl)c3)c2)cn1 [I-612, 3-(N-(3-chlorophenyl)sulfamoyl)-N-(6-methoxypyridin-3-yl)benzamide]
3	Cc1ccc(NC(=O)c2cccc(S(=O)(=O)Nc3ccccc3F)c2)c(F)c1 [I-613, N-(2-fluoro-4-methylphenyl)-3-(N-(2-fluorophenyl)sulfamoyl)benzamide]
1	CCOc1ccc(NS(=O)(=O)c2cccc(C(=O)Nc3ccc(OC)cc3)c2)cc1 [I-614, 3-(N-(4-ethoxyphenyl)sulfamoyl)-N-(4-methoxyphenyl)benzamide]
1	O=C(Nc1ccccn1)c1cccc(S(=O)(=O)Nc2cccc(Cl)c2)c1 [I-615, 3-(N-(3-chlorophenyl)sulfamoyl)-N-(pyridin-2-yl)benzamide]
71	O=C(Nc1ccccn1)c1cccc(NS(=O)(=O)c2ccc(Br)cc2)c1 [I-627, 3-((4-bromophenyl)sulfonamido)-N-(pyridin-2-yl)benzamide]
68	Cc1cc(NC(=O)c2cccc(NS(=O)(=O)c3ccc4c(c3)OCCO4)c2)no1 [I-628, 3-((2,3-dihydrobenzo[b][1,4]dioxine)-6-sulfonamido)-N-(5-methylisoxazol-3-yl)benzamide]
67	O=C(Nc1cccnc1)c1cccc(NS(=O)(=O)c2ccc3c(c2)OCCCO3)c1 [I-629, 3-((3,4-dihydro-2H-benzo[b][1,4]dioxepine)-7-sulfonamido)-N-(pyridin-3-yl)benzamide]
66	O=C(Nc1cccc2cccnc12)c1cccc(NS(=O)(=O)c2cccs2)c1 [I-630, N-(quinolin-8-yl)-3-(thiophene-2-sulfonamido)benzamide]
62	O=C(Nc1cccc(Cl)c1)c1cccc(NS(=O)(=O)c2cccs2)c1 [I-631, N-(3-chlorophenyl)-3-(thiophene-2-sulfonamido)benzamide]
62	O=C(Nc1ccc2c(c1)CCC2)c1cccc(NS(=O)(=O)c2cccs2)c1 [I-632, N-(2,3-dihydro-1H-inden-5-yl)-3-(thiophene-2-sulfonamido)benzamide]
60	Cc1cnc(NC(=O)c2cccc(NS(=O)(=O)c3ccc(Cl)c(Cl)c3)c2)[nH]1 [I-633, 3-((3,4-dichlorophenyl)sulfonamido)-N-(5-methyl-1H-imidazol-2-yl)benzamide]
59	O=C(Nc1cccc(C(F)(F)F)c1)c1cccc(NS(=O)(=O)c2ccc(Cl)s2)c1 [I-634, 3-((5-chlorothiophene)-2-sulfonamido)-N-(3-(trifluoromethyl)phenyl)benzamide]
58	O=C(Nc1nc2ccccc2[nH]1)c1cccc(NS(=O)(=O)c2ccc3c(c2)OCCCO3)c1 [I-635, N-(1H-benzo[d]imidazol-2-yl)-3-((3,4-dihydro-2H-benzo[b][1,4]dioxepine)-7-sulfonamido)benzamide]
58	Cc1ccc(NC(=O)c2cccc(NS(=O)(=O)c3cccs3)c2)cc1C [I-636, N-(3,4-dimethylphenyl)-3-(thiophene-2-sulfonamido)benzamide]
57	O=C(Nc1nc2c(s1)CCC2)c1cccc(NS(=O)(=O)c2ccc3c(c2)OCCO3)c1 [I-637, N-(5,6-dihydro-4H-cyclopenta[d]thiazol-2-yl)-3-((2,3-dihydrobenzo[b][1,4]dioxine)-6-sulfonamido)benzamide]
57	O=C(Nc1cccc2ncccc12)c1cccc(NS(=O)(=O)c2cccs2)c1 [I-638, N-(quinolin-5-yl)-3-(thiophene-2-sulfonamido)benzamide]
56	O=C(Nc1nccs1)c1cccc(NS(=O)(=O)c2cc(Cl)ccc2Cl)c1 [I-639, 3-((2,5-dichlorophenyl)sulfonamido)-N-(thiazol-2-yl)benzamide]
56	CCOc1ccc(S(=O)(=O)Nc2cccc(C(=O)Nc3ccc(C)cn3)c2)cc1 [I-640, 3-((4-ethoxyphenyl)sulfonamido)-N-(5-methylpyridin-2-yl)benzamide]
55	Cc1ccc(C)c(S(=O)(=O)Nc2cccc(C(=O)Nc3ccc(F)cn3)c2)c1 [I-641, 3-((2,5-dimethylphenyl)sulfonamido)-N-(5-fluoropyridin-2-yl)benzamide]

% Inhibition of Apyrase [%]	SMILES
55	O=C(Nc1cccc(C(F)(F)F)c1)c1cccc(NS(=O)(=O)c2cccs2)c1 [I-642, 3-(thiophene-2-sulfonamido)-N-(3-(trifluoromethyl)phenyl)benzamide]
55	O=C(Nc1cccc(C(F)(F)F)c1)c1cccc(NS(=O)(=O)c2ccc(Cl)nc2)c1 [I-643, 3-((6-chloropyridine)-3-sulfonamido)-N-(3-(trifluoromethyl)phenyl)benzamide]
54	O=C(Nc1nccs1)c1cccc(NS(=O)(=O)c2ccc3c(c2)OCCCO3)c1 [I-644, 3-((3,4-dihydro-2H-benzo[b][1,4]dioxepine)-7-sulfonamido)-N-(thiazol-2-yl)benzamide]
54	COc1ccc(NC(=O)c2cccc(NS(=O)(=O)c3ccc(Br)cc3)c2)cn1 [I-645, 3-((4-bromophenyl)sulfonamido)-N-(6-methoxypyridin-3-yl)benzamide]
54	Cc1ccc(NC(=O)c2cccc(NS(=O)(=O)c3ccc(Br)cc3)c2)nc1 [I-646, 3-((4-bromophenyl)sulfonamido)-N-(5-methylpyridin-2-yl)benzamide]
53	CCCCc1nnc(NC(=O)c2cccc(NS(=O)(=O)c3ccc(C)c(F)c3)c2)s1 [I-647, N-(5-butyl-1,3,4-thiadiazol-2-yl)-3-((3-fluoro-4-methylphenyl)sulfonamido)benzamide]
51	O=C(Nc1cccnc1)c1cccc(NS(=O)(=O)c2ccc(Br)cc2)c1 [I-648, 3-((4-bromophenyl)sulfonamido)-N-(pyridin-3-yl)benzamide]
50	Cc1ccc(S(=O)(=O)Nc2cccc(C(=O)Nc3nc4ccccc4[nH]3)c2)cc1F [I-649, N-(1H-benzo[d]imidazol-2-yl)-3-((3-fluoro-4-methylphenyl)sulfonamido)benzamide]
50	Cc1csc(NC(=O)c2cccc(NS(=O)(=O)c3ccc4c(c3)OCCCO4)c2)n1 [I-650, 3-((3,4-dihydro-2H-benzo[b][1,4]dioxepine)-7-sulfonamido)-N-(4-methylthiazol-2-yl)benzamide]
50	Cc1ccnc(NC(=O)c2cccc(NS(=O)(=O)c3ccc(C)c(F)c3)c2)c1 [I-651, 3-((3-fluoro-4-methylphenyl)sulfonamido)-N-(4-methylpyridin-2-yl)benzamide]
45	O=C(Nc1nnc(C2CC2)s1)c1cccc(NS(=O)(=O)c2ccccc2)c1 [I-652, N-(5-cyclopropyl-1,3,4-thiadiazol-2-yl)-3-(phenylsulfonamido)benzamide]
44	Cn1nc2c(c1NC(=O)c1cccc(NS(=O)(=O)c3ccc(Br)cc3)c1)CCC2 [I-653, 3-((4-bromophenyl)sulfonamido)-N-(2-methyl-2,4,5,6-tetrahydrocyclopenta[c]pyrazol-3-yl)benzamide]
42	COc1ccc(NC(=O)c2cccc(NS(=O)(=O)c3cc(Cl)ccc3Cl)c2)cn1 [I-654, 3-((2,5-dichlorophenyl)sulfonamido)-N-(6-methoxypyridin-3-yl)benzamide]
35	Cc1ccc(NC(=O)c2cccc(NS(=O)(=O)c3ccc(C)c(F)c3)c2)nc1 [I-655, 3-((3-fluoro-4-methylphenyl)sulfonamido)-N-(5-methylpyridin-2-yl)benzamide]
34	O=C(Nc1nc2ccccc2[nH]1)c1cccc(NS(=O)(=O)c2ccc3c(c2)OCCO3)c1 [I-656, N-(1H-benzo[d]imidazol-2-yl)-3-((2,3-dihydrobenzo[b][1,4]dioxine)-6-sulfonamido)benzamide]
34	O=C(Nc1[nH]ncc1-c1ccccc1)c1cccc(NS(=O)(=O)c2ccc(F)c(F)c2)c1 [I-657, 3-((3,4-difluorophenyl)sulfonamido)-N-(4-phenyl-1H-pyrazol-5-yl)benzamide]
32	O=C(Nc1ccccc1)c1cccc(NS(=O)(=O)c2cccs2)c1 [I-658, N-phenyl-3-(thiophene-2-sulfonamido)benzamide]
31	O=C(Nc1cnccn1)c1cccc(NS(=O)(=O)c2c(F)cccc2F)c1 [I-659, 3-((2,6-difluorophenyl)sulfonamido)-N-(pyrazin-2-yl)benzamide]
29	O=C(Nc1nccs1)c1cccc(NS(=O)(=O)c2ccc3c(c2)OCCO3)c1 [I-660, 3-((2,3-dihydrobenzo[b][1,4]dioxine)-6-sulfonamido)-N-(thiazol-2-yl)benzamide]
26	O=C(Nc1nccs1)c1cccc(NS(=O)(=O)c2ccc(Br)cc2)c1 [I-661, 3-((4-bromophenyl)sulfonamido)-N-(thiazol-2-yl)benzamide]
26	Cc1ccc(NC(=O)c2cccc(NS(=O)(=O)c3cccs3)c2)c(C)c1 [I-662, N-(2,4-dimethylphenyl)-3-(thiophene-2-sulfonamido)benzamide]
